Legend:
[1] = tested on: CCl4-induced hepatic fibrosis mice; assay: CCl4-induced mouse hepatic fibrosis, HE staining and Sirius-red staining of hepatic tissue; assay type: in vivo; settings: gliclazide solution 500 μM, C57 mice
Procedure: Experimental materials include 60 healthy male C57 mice (20-25 g per mouse, purchased from Chongqing […] Biotechnology Co., Ltd.), gavage needles, 1 milliliter (mL) syringes, CCI4 solution, olive oil, and gliclazide solution. An experimental method is as follows. The CCl4 solution is prepared by dissolving CCl4 in the olive oil (a volume ratio of CCl4 to olive oil is 1:4), and the prepared CCl4 solution should be used immediately. The gliclazide solution is prepared by dissolving gliclazide in physiological saline, the concentration of the gliclazide solution is 500 micromoles per liter (μM), and the prepared gliclazide solution should be used immediately. The mice are randomly divided into four groups including a, b, c, and d. • a. Normal control group. • b. Model group: mice are intragastrically administered with the CCl4 solution, 0.1 mL/20 g (i.e., 0.1. mL CC14 per 20 g of body weight of mice), twice a week for 8 weeks. • c. CCl4+gliclazide group: mice are intragastrically administered with the CCl4 solution alone, 0.1 mL/20 g, twice a week for 2 weeks; then the mice are given with the gliclazide solution and the CCl4 solution together for 6 weeks; and an administration method of the gliclazide solution is 0.2mL/20g and intraperitoneal injection once a day. • d. Gliclazide group: the gliclazide solution is intraperitoneally injected into mice for 8 weeks; and an administration method of the gliclazide solution is 0.2 mL/20 g and intraperitoneal injection once a day. The mice are sacrificed at the 2nd, 4th, 6th and 8th weeks of modeling respectively, and one mouse in each group is sacrificed each time. Hepatic samples obtained from the sacrificed mice are taken out and stored in liquid nitrogen at -80 Celsius degrees (° C.), and the other hepatic samples are fixed in paraformaldehyde with a concentration of 4% for 24 hours, then the other hepatic samples are embedding in paraffin. The degrees of severity of hepatic fibrosis are observed by appearance, Sirius-red staining, and hematoxylin-eosin (HE) staining. […]

α-SMA [2] = assay: α-SMA in hepatic tissues detected by immunohistochemistry; assay type: in vivo, mouse; settings: CCl4-induced hepatic fibrosis mice; gliclazide solution 500 μM intraperitoneal
Procedure: The mice are randomly divided into four groups including a, b, c, and d. • a. Normal control group. • b. Model group: mice are intragastrically administered with the CCl4 solution, 0.1 mL/20 g (i.e., 0.1. mL CC14 per 20 g of body weight of mice), twice a week for 8 weeks. • c. CCl4+gliclazide group: mice are intragastrically administered with the CCl4 solution alone, 0.1 mL/20 g, twice a week for 2 weeks; then the mice are given with the gliclazide solution and the CCl4 solution together for 6 weeks; and an administration method of the gliclazide solution is 0.2mL/20g and intraperitoneal injection once a day. • d. Gliclazide group: the gliclazide solution is intraperitoneally injected into mice for 8 weeks; and an administration method of the gliclazide solution is 0.2 mL/20 g and intraperitoneal injection once a day. […] An experimental method is as follows.

α-SMA [3] = assay: α-SMA in hepatic tissues detected by Western blotting; assay type: in vivo, mouse; settings: CCl4-induced hepatic fibrosis mice; gliclazide solution 500 μM intraperitoneal
Procedure: (§1) The mice are randomly divided into four groups including a, b, c, and d. • a. Normal control group. • b. Model group: mice are intragastrically administered with the CCl4 solution, 0.1 mL/20 g (i.e., 0.1. mL CC14 per 20 g of body weight of mice), twice a week for 8 weeks. • c. CCl4+gliclazide group: mice are intragastrically administered with the CCl4 solution alone, 0.1 mL/20 g, twice a week for 2 weeks; then the mice are given with the gliclazide solution and the CCl4 solution together for 6 weeks; and an administration method of the gliclazide solution is 0.2mL/20g and intraperitoneal injection once a day. • d. Gliclazide group: the gliclazide solution is intraperitoneally injected into mice for 8 weeks; and an administration method of the gliclazide solution is 0.2 mL/20 g and intraperitoneal injection once a day. Experimental materials include mouse hepatic tissues, a tweezer, a scissor, steel balls with a size of 2 millimeters (mm), a magnet, a cell lysis solution, a PBS solution, a bicinchoninic acid (BCA) protein assay kit, non-fat powdered milk, primary antibodies and corresponding secondary antibodies related to α-SMA, LC3, and p62. An experimental method is as follows. […] The optical density (OD) value at 560 nanometers (nm) is measured by using an enzyme-linked immunosorbent assay (ELISA) on the machine to calculate the concentration of the protein. […]

LC3 [4] = assay: LC3 in hepatic tissues detected by Western blotting; assay type: in vivo, mouse; settings: CCl4-induced hepatic fibrosis mice; gliclazide solution 500 μM intraperitoneal
Procedure: as §1

p62 [5] = assay: p62 in hepatic tissues detected by Western blotting; assay type: in vivo, mouse; settings: CCl4-induced hepatic fibrosis mice; gliclazide solution 500 μM intraperitoneal
Procedure: as §1

HSCs-T6 = assay: HSCs proliferation under co-culture of gliclazide and TGF-β1 detected by CCK8; assay type: cell-based, rat; settings: TGF-β1 10 ng/mL, 48 hours, P<0.05
Procedure: Experimental materials include HSCs-T6, a Dulbecco's modified eagle medium (DMEM) complete culture medium, a 96-well plate, a counting chamber (also referred to as hemocytometer), CCK-8 working solution, and the like. An experimental method is as follows. First, HSCs-T6 are cultured in the DMEM culture medium containing 10% fetal bovine serum, 1% double antibody (penicillin streptomycin solution) and 1% nonessential amino acid (NEAA), and the culture conditions include 37° C. and 5% CO2. The cells are digested by using trypsin for passage cultivation after the cells are converged to 80% to 90%. Next, the cells are inoculated in the plate, specifically, a density of […] cell suspension with a volume of 100 μL is added into each well of the 96-well plate, each group has 6 replicate wells. This experiment is divided into a control group and a TGF-β1 group, TGF-β1+gliclazide (the gliclazide used in this group has different concentrations of 50μM, 100μM, 150μM, and 200μM) medicament groups. After cell attachment, except for the control group and the TGF-β1 group, the other groups are added with gliclazide with the above concentrations respectively, and after 3 hours, TGF-β1 (10 ng/mL) is added to corresponding groups for stimulating HSCs of […]. After 48 hours of incubation, 100 μL mixed solution of “10% CCK8+90% culture medium” is added into each well. Then the incubation is performed at 37° C. for 1˜4 h, a wavelength is set at 450 nm, and an automatic enzyme analyzer is used to read and record absorbance values at the corresponding wavelength. The effects of gliclazide on cell proliferation are detected by CCK8, and the optimal action time and optimal medicament concentration are screened.

α-SMA [6] = assay: α-SMA in HSCs detected by Western blotting; assay type: cell-based, rat; settings: HSCs-T6; gliclazide 100 βM; TGF-β1 10 ng/ml; 48 hours
Procedure: (§2) Experimental materials include HSCs-T6, a DMEM complete culture medium, cell culture dishes, a cell lysis solution, a PBS solution, a BCA protein assay kit, non-fat powdered milk, primary antibodies and corresponding secondary antibodies related to α-SMA, LC3, and p62. Experimental method is as follows. First, this experiment is divided into a normal group, a TGF-β1 group, a gliclazide +TGF-β1 group, and a gliclazide group. The concentration of the TGF-β1 is 10 ng/ml, and the concentration of the gliclazide is 100 βM. The the HSCs-T6 is cultured by using the cell culture dish, and inoculated, administrated, added with TGF-β1 according to the conditions described in the embodiment 4. After 48 hours, the incubated cells are rinsed by the precooled PBS solution for 3-4 times, and residual PBS liquid is absorbed with a filter paper, 50 μL radioimmune precipitation assay (RIPA) buffer and 0.5 μL (100:1) phenylmethanesulfonyl fluoride (PMSF) with a concentration of 100millimoles per liter (mmol/L) are added in a 50 mL culture flask and placed on ice for 30 minutes. Then, the protein is scraped by a cell scraper from the culture flask and suctioned out into the EP tubes, and centrifuged at 12000 rpm for 30 minutes at 4° C. […] The OD value at 560 nm is measured by using ELISA on the machine to calculate the concentration of the protein. […]

LC3 [7] = assay: LC3 in HSCs detected by Western blotting; assay type: cell-based, rat; settings: HSCs-T6; gliclazide 100 βM; TGF-β1 10 ng/ml; 48 hours
Procedure: as §2

p62 [8] = assay: p62 in HSCs detected by Western blotting; assay type: cell-based, rat; settings: HSCs-T6; gliclazide 100 βM; TGF-β1 10 ng/ml; 48 hours
Procedure: as §2

α-SMA [9] = assay: α-SMA in HSCs added with autophagy agonist rapamycin, Western blotting; assay type: cell-based, rat; settings: HSCs-T6; gliclazide 100 βM; TGF-β1 10 ng/ml; 48 hours; P<0.05
Procedure: Experimental materials include HSCs-T6, rapamycin, a DMEM complete culture medium, cell culture dishes, a cell lysis solution, a PBS solution, a BCA protein assay kit, non-fat powdered milk, primary antibodies and corresponding secondary antibodies related to α-SMA, LC3, and p62.
Experimental method is as follows. First, this experiment is divided into a normal group, a TGF-β1 group, a gliclazide +TGF-β1 group, and a gliclazide +TGF-β1 +rapamycin group. The concentration of the TGF-β1 is 10 ng/ml, the concentration of the gliclazide is 100 βM, and the concentration of the rapamycin is 100 nanomoles per liter (nM). The TGF-β1 is added at the same time as that in the embodiment 5, and rapamycin and gliclazide are added simultaneously. After 48 hours of incubation, the above groups are detected by the BCA protein assay kit and Western blotting.

[10] = CCl4+gliclazide group vs model group, 0.2 mL/20 g intraperitoneal once a day for 6 weeks

- collagen fibers in hepatic tissue (Sirius-red staining) ([1]; gliclazide group without CCl4, 0.2 mL/20 g intraperitoneal once a day for 8 weeks): no obvious collagen fibers are observed
SMILES: Cc1ccc(S(=O)(=O)NC(=O)NN2CC3CCCC3C2)cc1 (centres unmarked) [gliclazide]
- degree of hepatic fibrosis (HE staining) [1, 10]: significantly decreased
- degree of hepatic tissue injury (HE staining) [1, 10]: significantly decreased
- expression of α-SMA in hepatic tissues (immunohistochemistry) (α-SMA [2]): down-regulate
- expression of α-SMA in hepatic tissue (Western blotting) (α-SMA [3]): significantly decreases
- expression of LC3 in hepatic tissue (Western blotting) (LC3 [4]): significantly decreases
- expression level of autophagy substrate p62 in hepatic tissue (Western blotting) (p62 [5]): significantly increases
- proliferation of HSC-T6 induced by TGF-β1 (CCK8) (HSCs-T6; gliclazide 100 μM): inhibits the proliferation
- proliferation of HSC-T6 induced by TGF-β1 (CCK8) (HSCs-T6; gliclazide 150 μM): inhibits the proliferation
- proliferation of HSC-T6 induced by TGF-β1 (CCK8) (HSCs-T6; gliclazide 200 μM): inhibits the proliferation
- expression of α-SMA in HSCs (Western blotting) (α-SMA [6]): significantly decreases
- expression of LC3 in HSCs (Western blotting) (LC3 [7]): significantly decreases
- expression level of autophagy substrate p62 in HSCs (Western blotting) (p62 [8]): significantly increases
- protein expression level of α-SMA, gliclazide +TGF-β1 group vs TGF-β1 group (α-SMA [9]): significantly lower

— patent US20240390395A1, “APPLICATION OF ION CHANNEL BLOCKER IN TREATMENT AND/OR PREVENTION OF HEPATIC FIBROSIS” (Affiliated Hospital of Zunyi Medical University, priority 2023, published 2024)
